Like-named read-outs stand apart in the source and are kept apart here. Some results are limits rather than exact numbers.

The target of the assay is T1, recombinant human GST-Syk (Homo sapiens, UniProt P43405).
T1 construct: purchased Carna Biosciences 08-176
The assay is described as follows: Homogeneous Time-Resolved Fluorescence (HTRF) assay for the recombinant human Syk enzyme. The settings on record: ATP 25 μM, 10-dose titration. It counts as biochemical. How it is done:
Syk inhibition may be determined using the following assay protocol:
Homogeneous Time-Resolved Fluorescence (HTRF) Assay for the Recombinant Human Syk Enzyme:
A recombinant GST-hSyk fusion protein was used to measure potency of compounds to inhibit human Syk activity. The recombinant human GST-Syk (Carna Biosciences #08-176) ([…]) was incubated with various concentrations of the inhibitor diluted in DMSO (0.1% final concentration) for 10 minutes at room temperature in 15 mM Tris-HCl (pH 7.5), 0.01% tween 20, 2 mM DTT in 384 well plate format. To initiate the reaction the biotinylated substrate peptide (250 nM final concentration) that contains the phosphorylation site for Syk was added with magnesium (5 mM final concentration) and ATP (25 μM final concentration). Final volume of the reaction was 10 μL. Phosphorylation of the peptide was allowed to proceed for 45 minutes at room temperature. To quench the reaction and detect the phosphorylated product, 2 nM of a Europium-anti-phosphotyrosine antibody (Perkin Elmer #AD0161) and 70 nM SA-APC (Perkin-Elmer #CR130-100) were added together in 15 mM Tris pH 7.5, 40 mM EDTA, 0.01% tween 20. Final volume of the quenching solution was 10 μL. The resulting HTRF signal was measured after 30 minutes on an EnVision (Perkin-Elmer) reader using a time-resolved fluorescence protocol. IC50 was determined following 10-dose titration (10 μM to 0.508 nM) and four parameter logistic curve fitting using the Merck Assay Data Analyzer. The rhSyk activity (IC50) is expressed as +++ (100 nM or less), ++ (between 100 and 1000 nM), + (between 1 and 10 μM).
(Time-resolved FRET reads energy transfer from a long-lived donor to a nearby acceptor.)

In the case of `CCOC(=O)C1(C)CC=C(c2cn(-c3cc(C)cc(Nc4nccc(C(F)(F)F)n4)c3)cn2)CC1` (racemic) [Example 19, Ethyl 1-methyl-4-[1-(3-methyl-5-{[4-(trifluoromethyl)-pyrimidin-2-yl]amino}-phenyl)-1H-imidazol-4-yl]cyclohex-3-ene-1-carboxylate], the IC50 (read-out: rhSYK Activity) fell in the range of 100 to 1000 nM. As for `Cc1cc(Nc2nccc(C(F)(F)F)n2)cc(-n2cnc(C3=CCC(C)(C(=O)O)CC3)c2)c1` (racemic) [Example 21, 1-methyl-4-[1-(3-methyl-5-{[4-(trifluoromethyl)-pyrimidin-2-yl]amino}-phenyl)-1H-imidazol-4-yl]cyclohex-3-ene-1-carboxylic acid], the IC50 (read-out: rhSYK Activity) was ≤ 100 nM. Take `Cc1cc(Nc2nccc(C(F)(F)F)n2)cc(-n2cnc(C3(O)CCC(C(=O)O)C(C)(C)C3)c2)c1` (racemic) [Example 25, 4-hydroxy-2,2-dimethyl-4-[1-(3-methyl-5-{[4-(trifluoromethyl)pyrimidin-2-yl]amino}phenyl)-1H-imidazol-4-yl]-cyclohexanecarboxylic acid]: the IC50 (read-out: rhSYK Activity) is ≤ 100 nM. Still for that read-out and setting: the same measure for `Cc1cc(Nc2nccc(C(F)(F)F)n2)cc(-n2cnc(C(C)(O)CO)c2)c1` (racemic) [Example 113, (rac)-2-[1-(3-Methyl-5-{[4-(trifluoromethyl)pyrimidin-2-yl]amino}phenyl)-1H-imidazol-4-yl]propane-1,2-diol]: ≤ 100 nM; for `Cc1cc(Nc2nccc(C(F)(F)F)n2)cc(-n2cnc(C(C)(O)[C@H]3CC[C@H](C(N)=O)CC3)c2)c1` (relative stereo) [Example 7, trans-4-{1-hydroxy-1-[1-(3-methyl-5-{[4-(trifluoromethyl)pyrimidin-2-yl]amino}phenyl)-1H-imidazol-4-yl]ethyl]cyclohexanecarboxamide]: ≤ 100 nM. Take `Cc1cc(Nc2nccc(C)n2)cc(-n2cnc(C(C)(O)[C@H]3CC[C@H](C(=O)O)CC3)c2)c1` (relative stereo) [Example 9, trans-4-[1-hydroxy-1-(1-{3-methyl-5-[(4-methyl-pyrimidin-2-yl)amino]-phenyl}-1H-imidazol-4-yl)ethyl]cyclohexane-carboxylic acid]: the IC50 (read-out: rhSYK Activity) was ≤ 100 nM and the IC50 (read-out: rhSYK IC50) turned out to be 15 nM. With `Cc1cc(Nc2nccc(C(F)(F)F)n2)cc(-n2cnc(C(C)(O)[C@H]3CC[C@H](C(=O)O)CC3)c2)c1` (relative stereo) [Example 10, trans-4-{1-hydroxy-1-[1-(3-methyl-5-{[4-(trifluoromethyl)pyrimidin-2-yl]amino}phenyl)-1H-imidazol-4-yl]ethyl}-cyclohexanecarboxylic acid], the IC50 is, setting by setting: (read-out: rhSYK Activity) ≤ 100 nM; (read-out: rhSYK IC50) 1.78 nM. For the molecule `CCCCOC(=O)[C@H]1CC[C@H](C(C)(O)c2cn(-c3cc(C)cc(Nc4nccc(C)n4)c3)cn2)CC1` (relative stereo) [Example 11, Butyl trans-4-[1-hydroxy-1-(1-{3-methyl-5-[(4-methylpyrimidin-2-yl)amino]phenyl}-1H-imidazol-4-yl)ethyl]-cyclohexanecarboxylate], the IC50 (read-out: rhSYK Activity) was in the range of 100 to 1000 nM. As for `CCCCOC(=O)[C@H]1CC[C@H](C(C)(O)c2cn(-c3cc(C)cc(Nc4nccc(C(F)(F)F)n4)c3)cn2)CC1` (relative stereo) [Example 12, Butyl trans-4-{1-hydroxy-1-[1-(3-methyl-5-[(4-(trifluoromethyl)-pyrimidin-2-yl]amino}-phenyl)-1H-imidazol-4-yl]ethyl}cyclohexane-carboxylate], the IC50 (read-out: rhSYK Activity) fell in the range of 100 to 1000 nM. For `Cc1cc(Nc2nccc(C(F)(F)F)n2)cc(-n2cnc([C@@]3(O)CC[C@@](C)(C(=O)O)C[C@@H]3O)c2)c1` (single isomer, unassigned) [5 (isomer 1)], the IC50 (read-out: rhSYK Activity) was ≤ 100 nM.

Take `Cc1cc(Nc2nccc(C(F)(F)F)n2)cc(-n2cnc([C@]3(O)CC[C@@](C)(C(=O)O)C[C@H]3O)c2)c1` (single isomer, unassigned) [5 (isomer 2)]: the IC50 (read-out: rhSYK Activity) is ≤ 100 nM.

As for `CCOC(=O)C1CCC(O)(c2cn(-c3cc(C)cc(Nc4nccc(C(F)(F)F)n4)c3)cn2)CC1` (stereo not drawn) [1, Step 1], the IC50 (read-out: rhSYK IC50) turned out to be 12.7 nM. Regarding `Cc1cc(Nc2nccc(C(F)(F)F)n2)cc(-n2cnc([C@H]3CC[C@@H](C(=O)O)CC3)c2)c1` [2 (cis), Cis-4-[1-(3-methyl-5-{[4-(trifluoromethyl)pyrimidin-2-yl]amino}phenyl)-1H-imidazol-4-yl]cyclohexanecarboxylic acid], the IC50 runs as follows: (read-out: rhSYK Activity) ≤ 100 nM; (read-out: rhSYK IC50) 12.5 nM. For the molecule `Cc1cc(Nc2nccc(C(F)(F)F)n2)cc(-n2cnc([C@H]3CC[C@H](C(=O)O)CC3)c2)c1` [2 (trans), Trans-4-[1-(3-methyl-5-{[4-(trifluoromethyl)pyrimidin-2-yl]amino}phenyl)-1H-imidazol-4-yl]cyclohexanecarboxylic acid], the IC50 was ≤ 100 nM (read-out: rhSYK Activity) and 1.2 nM (read-out: rhSYK IC50).

For `CNC(=O)[C@H]1CC[C@](O)(c2cn(-c3cc(C)cc(Nc4nccc(C(F)(F)F)n4)c3)cn2)CC1` [Example 1, Cis-4-hydroxy-N-methyl-4-[1-(3-methyl-5-{[4-(trifluoromethyl)pyrimidin-2-yl]amino}phenyl)-1H-imidazol-4-yl]cyclohexanecarboxamide], the IC50 is, setting by setting: (read-out: rhSYK Activity) ≤ 100 nM; (read-out: rhSYK IC50) 6.1 nM.

Take `Cc1cc(Nc2nccc(C(F)(F)F)n2)cc(-n2cnc(C3=CCC(C(=O)O)CC3)c2)c1` (stereo not drawn) [Example 3, 4-[1-(3-methyl-5-{[4-(trifluoromethyl)pyrimidin-2-yl]amino}phenyl)-1H-imidazol-4-yl]cyclohex-3-ene-1-carboxylic acid]: the IC50 (read-out: rhSYK Activity) was ≤ 100 nM.

`Cc1cc(Nc2nccc(C(F)(F)F)n2)cc(-n2cnc(C3=CCC(C(=O)O)C(C)(C)C3)c2)c1` (stereo not drawn) [Example 4, 6,6-Dimethyl-4-[1-(3-methyl-5-{[4-(trifluoromethyl)pyrimidin-2-yl]amino}phenyl)-1H-imidazol-4-yl]cyclohex-3-ene-1-carboxylic acid]: the IC50 by setting is: (read-out: rhSYK Activity) ≤ 100 nM; (read-out: rhSYK IC50) 0.9 nM. With `Cc1cc(Nc2nccc(C(F)(F)F)n2)cc(-n2cnc(C3(O)CCC(CC(N)=O)CC3)c2)c1` (stereo not drawn) [Example 6, 2-{cis-4-hydroxy-4-[1-(3-methyl-5-{[4-(trifluoromethyl)pyrimidin-2-yl]amino}phenyl)-1H-imidazol-4-yl]cyclohexyl)acetamide], the IC50 (read-out: rhSYK Activity) was ≤ 100 nM. For `Cc1cc(Nc2nccc(C3CC3)n2)cc(-n2cnc(C[C@H](O)C(=O)O)c2)c1` [Example 8, (2S)-3-(1-{3-[(4-cyclopropylpyrimidin-2-yl)amino]-5-methylphenyl}-1H-imidazol-4-yl)-2-hydroxypropanoic acid], the IC50 (read-out: rhSYK Activity) is ≤ 100 nM. As to `Cc1cc(Nc2cc(C(F)(F)F)ccn2)nc(-n2cnc([C@]3(O)CC[C@H](CC(=O)O)CC3)c2)c1` [Example 13, {trans-4-hydroxy-4-[1-(4-methyl-6-{[4-(trifluoromethyl)pyridin-2-yl]amino}pyridin-2-yl)-1H-imidazol-4-yl]cyclohexyl}acetic acid], where the note is “read-out: rhSYK Activity”, the IC50 is ≤ 100 nM.

Regarding `Cc1cc(Nc2cc(C(F)(F)F)ccn2)nc(-n2cnc([C@]3(O)CC[C@@H](CC(=O)O)CC3)c2)c1` [Example 14, {cis-4-hydroxy-4-[1-(4-methyl-6-{[4-(trifluoromethyl)pyridin-2-yl]amino}pyridin-2-yl)-1H-imidazol-4-yl]cyclohexyl}acetic acid], the IC50 is ≤ 100 nM (read-out: rhSYK Activity) and 0.861 nM (read-out: rhSYK IC50).

As for `Cc1cc(Nc2nccc(C(F)(F)F)n2)cc(-n2cnc([C@]3(O)CC[C@H](CC(=O)O)CC3)c2)c1` [Example 15, {trans-4-hydroxy-4-[1-(3-methyl-5-{[4-(trifluoromethyl)pyrimidin-2-yl]amino}phenyl)-1H-imidazol-4-yl]-cyclohexyl}acetic acid], the IC50 (read-out: rhSYK Activity) was ≤ 100 nM.

In the case of `Cc1cc(Nc2nccc(C(F)(F)F)n2)cc(-n2cnc([C@]3(O)CC[C@@H](CC(=O)O)CC3)c2)c1` [Example 16, {cis-4-hydroxy-4-[1-(3-methyl-5-{[4-(trifluoromethyl)pyrimidin-2-yl]amino}phenyl)-1H-imidazol-4-yl]-cyclohexyl}acetic acid], the IC50 runs as follows: (read-out: rhSYK Activity) ≤ 100 nM; (read-out: rhSYK IC50) 1.64 nM. As for `COC(=O)C[C@H]1CC[C@@](O)(c2cn(-c3cc(C)cc(Nc4nccc(C(F)(F)F)n4)c3)cn2)CC1` [Example 17, Methyl {trans-4-hydroxy-4-[1-(3-methyl-5-{[4-(trifluoromethyl)pyrimidin-2-yl]amino}phenyl)-1H-imidazol-4-yl]-cyclohexyl}acetate], the IC50 (read-out: rhSYK Activity) is ≤ 100 nM.

`COC(=O)C[C@H]1CC[C@](O)(c2cn(-c3cc(C)cc(Nc4nccc(C(F)(F)F)n4)c3)cn2)CC1` [Example 18, Methyl {cis-4-hydroxy-4-[1-(3-methyl-5-{[4-(trifluoromethyl)pyrimidin-2-yl]amino}phenyl)-1H-imidazol-4-yl]-cyclohexyl}acetate]: the IC50 (read-out: rhSYK Activity) is ≤ 100 nM.
